pIC50: −log10 of the molar value.
Target: T1, Menin (Homo sapiens, UniProt O00255)
T1 sequence (O00255 whole entry): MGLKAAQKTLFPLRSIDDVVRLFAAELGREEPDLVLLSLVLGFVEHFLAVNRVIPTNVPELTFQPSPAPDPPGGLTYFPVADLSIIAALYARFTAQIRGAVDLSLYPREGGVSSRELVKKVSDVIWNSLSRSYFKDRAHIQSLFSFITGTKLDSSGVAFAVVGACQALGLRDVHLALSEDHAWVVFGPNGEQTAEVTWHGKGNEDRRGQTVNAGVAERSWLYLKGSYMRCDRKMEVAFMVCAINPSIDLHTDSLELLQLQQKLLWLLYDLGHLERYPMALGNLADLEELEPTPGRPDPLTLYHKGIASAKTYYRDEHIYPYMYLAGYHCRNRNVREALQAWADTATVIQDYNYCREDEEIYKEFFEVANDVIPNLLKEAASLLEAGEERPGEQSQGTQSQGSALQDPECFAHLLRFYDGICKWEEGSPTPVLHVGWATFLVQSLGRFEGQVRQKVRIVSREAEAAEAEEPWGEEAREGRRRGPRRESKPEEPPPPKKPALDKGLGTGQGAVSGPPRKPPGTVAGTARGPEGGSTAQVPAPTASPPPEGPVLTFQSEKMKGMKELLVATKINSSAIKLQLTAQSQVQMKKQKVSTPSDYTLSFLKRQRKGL
Experiment: Menin-MLL Interaction Inhibitory Activity Assay
Protocol: The inhibition of Menin/MLL-4-43 peptide interaction by small molecule inhibitors was quantitatively detected by fluorescence polarization competition assay. The experiment was performed in a 384-well plate (Corning, Cat #3575) using a reaction buffer consisting of 50 mM Tris, pH 7.5, 50 mM NaCl, and 1 mM DTT. A 40 μL reaction system included 10 μL of 8 nM Menin recombinant protein and 10 μL of the test compound at different concentrations. The compound was pre-incubated with Menin protein for 15 min, and then 20 μL of 10 nM FITC-MLL4-43-peptide was added. After incubation on a shaker at 25° C. for 60 min, the fluorescence polarization signal (FP 485 520 520) was read using BMG PHERAStar detection. The experimental data was analyzed and processed by GraphPad Prism 6 software to obtain the IC50 value.

Row | SMILES | pIC50
1 | CCN(C(=O)c1cc(F)ccc1Oc1cncnc1N1CC2(CCN(C[C@H]3CC[C@@]4(CCC(=O)N4)CC3)CC2)C1)C(C)C [US20250074910, Example 1] | 7.44
2 | CC(C)N(C(=O)c1cc(F)ccc1Oc1nncnc1N1CC2(CCN(C[C@H]3CC[C@]4(CC3)CC(CO)(CO)C(=O)N4)CC2)C1)C(C)C [US20250074910, Example 63] | 8.08

Source: BindingDB's records for patent US20250074910 (Hitgen, 2025)
